Assay results published in the supplement of paper PMC4862054.

Experiments:
[1] = system: BT-474; assay: normalised response (% of control), CellTiter-Glo; higher = more viable cells (100 = DMSO, 0 = benzethonium chloride kill control); details: incubation time: 72 h
In short: (§1)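 Breast cancer cell lines in 20 µl suspension were added to 384-well plates containing compound at 5 concentrations, spaced in 10-fold steps across a 10,000-fold range chosen for each compound, and incubated for 72 h. CellTox Green fluorescence was read at 485/520 nm, followed by CellTiter-Glo luminescence after 10 min at room temperature. Signals on each plate were normalised so that 0.1 % DMSO equals 100 and a positive kill control equals 0. Every value in the table is the normalised signal at one concentration of the series.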

[2] = system: CAL-120; assay: as above; details: incubation time: 72 h
In short: as §1

[3] = system: SK-BR-3; assay: as above; details: incubation time: 72 h
In short: as §1

[4] = system: HCC1937; assay: as above; details: incubation time: 72 h
In short: as §1

[5] = system: BT-549; assay: as above; details: incubation time: 72 h
In short: as §1

[6] = system: MCF-10A; assay: as above; details: incubation time: 72 h
In short: as §1

[7] = system: HCC1143; assay: as above; details: incubation time: 72 h
In short: as §1

[8] = system: MDA-MB-436; assay: as above; details: incubation time: 72 h
In short: as §1

[9] = system: CAL-148; assay: as above; details: incubation time: 72 h
In short: as §1

[10] = system: MFM-223; assay: as above; details: incubation time: 72 h
In short: as §1

[11] = system: Hs578T; assay: as above; details: incubation time: 72 h
In short: as §1

[12] = system: DU-4475; assay: as above; details: incubation time: 72 h
In short: as §1

[13] = system: HCC1599; assay: as above; details: incubation time: 72 h
In short: as §1

[14] = system: HDQ-P1; assay: as above; details: incubation time: 72 h
In short: as §1

[15] = system: CAL-51; assay: as above; details: incubation time: 72 h
In short: as §1

[16] = system: CAL-85-1; assay: as above; details: incubation time: 72 h
In short: as §1

[17] = system: MDA-MB-468; assay: as above; details: incubation time: 72 h
In short: as §1

[18] = system: MDA-MB-453; assay: as above; details: incubation time: 72 h
In short: as §1

[19] = system: MDA-MB-231; assay: as above; details: incubation time: 72 h
In short: as §1

[20] = system: BT-474; details: 72 h
Experimental: (§2)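 Drug sensitivity and resistance testing (DSRT) of breast cancer cell lines in 384-well plates, 5 concentrations in 10-fold dilutions over a compound-specific 10,000-fold range. After 72 h, cytotoxicity was read by CellTox Green fluorescence and viability by CellTiter-Glo luminescence (multiplexed), normalised to DMSO and benzethonium chloride controls. EC50 is the inflection point of the fitted dose-response curve (bottom asymptote free, so it can be relative for partial curves) and is censored at the highest tested concentration. Rows with DSS 0 (no meaningful response) were excluded.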

[21] = system: Hs578T; details: 72 h
Experimental: as §2

[22] = system: CAL-51; details: 72 h
Experimental: as §2

[23] = system: CAL-85-1; details: 72 h
Experimental: as §2

With CO[C@@H]1[C@H](N(C)C(=O)c2ccccc2)C[C@H]2O[C@]1(C)n1c3ccccc3c3c4c(c5c6ccccc6n2c5c31)C(=O)NC4 [Midostaurin] (10000 nM) the normalised response [1] was 41.7%, the normalised response [2] was 46.2% and the normalised response [3] was 45.2%. It also gave a normalised response [4] of 50.1%, a normalised response [5] of 4.02% and a normalised response [6] of 24.9%. The normalised response [7] was 45.9%, the normalised response [8] was 68.8% and the normalised response [9] was 88.1%. The normalised response [10] was 66.5%, the normalised response [11] was 16.8% and the normalised response [12] was 34.1%. It also gave a normalised response [13] of 102%, a normalised response [14] of 54.4% and a normalised response [15] of 11.5%. It also gave a normalised response [16] of 76%, a normalised response [17] of 29.4% and a normalised response [18] of 110%. For the same compound, the normalised response [19] was 40.7%.

CO[C@@]12[C@H](COC(N)=O)C3=C(C(=O)C(C)=C(N)C3=O)N1C[C@@H]1N[C@@H]12 [Mitomycin C] (10000 nM) showed a normalised response [1] of 69.5%, a normalised response [2] of 88.1% and a normalised response [3] of 58.4%. For the same compound, the normalised response [4] was 73.3%, the normalised response [5] was 15% and the normalised response [6] was 73%. The normalised response [7] was 71%, the normalised response [8] was 41.7% and the normalised response [9] was 51%. It also gave a normalised response [10] of 86.5%, a normalised response [11] of 91.1% and a normalised response [12] of 69%. For the same compound, the normalised response [13] was 57.4%, the normalised response [14] was 84.1% and the normalised response [15] was 5.75%. It also gave a normalised response [16] of 57%, a normalised response [17] of 22.5% and a normalised response [18] of 85.8%. For the same compound, the normalised response [19] was 82.5%.

CCNC(=O)c1noc(-c2cc(C(C)C)c(O)cc2O)c1-c1ccc(CN2CCOCC2)cc1 [NVP-AUY922] was tested, and the “EC50, CellTox Green” value [20] was 219 nM, the “EC50, CellTox Green” value [21] was 247 nM and the “EC50, CellTox Green” value [22] was 74.6 nM. The “EC50, CellTox Green” value [23] was 84.1 nM.

CCNC(=O)c1noc(-c2cc(C(C)C)c(O)cc2O)c1-c1ccc(CN2CCOCC2)cc1 [NVP-AUY922] (1000 nM) was tested, and the normalised response [1] was 25.6%, the normalised response [2] was 47.9% and the normalised response [3] was 39.4%. It also gave a normalised response [4] of 28.3%, a normalised response [5] of 39.8% and a normalised response [6] of 16.7%. For the same compound, the normalised response [7] was 38%, the normalised response [8] was 50.9% and the normalised response [9] was 29.3%. It also gave a normalised response [10] of 36.3%, a normalised response [11] of 35.6% and a normalised response [12] of -0.14%. For the same compound, the normalised response [13] was 77%, the normalised response [14] was 23.6% and the normalised response [15] was 13.5%. For the same compound, the normalised response [16] was 21%, the normalised response [17] was 22.6% and the normalised response [18] was 26.3%. For the same compound, the normalised response [19] was 24.9%.

CC1(C)CCC(c2ccc(Cl)cc2)=C(CN2CCN(c3ccc(C(=O)NS(=O)(=O)c4ccc(N[C@H](CCN5CCOCC5)CSc5ccccc5)c(S(=O)(=O)C(F)(F)F)c4)cc3)CC2)C1 [Navitoclax] (10000 nM) showed a normalised response [1] of 23.5%, a normalised response [2] of 37.4% and a normalised response [3] of 73.2%. The normalised response [4] was 56.9%, the normalised response [5] was 86.7% and the normalised response [6] was 92.5%. For the same compound, the normalised response [7] was 77.8%, the normalised response [8] was 90.7% and the normalised response [9] was 72.4%. For the same compound, the normalised response [10] was 55.6%, the normalised response [11] was 79.3% and the normalised response [12] was 72.4%. It also gave a normalised response [13] of 93.1%, a normalised response [14] of 66.8% and a normalised response [15] of 74.5%. It also gave a normalised response [16] of 86.2%, a normalised response [17] of 78% and a normalised response [18] of 60.3%. The normalised response [19] was 16.1%.

For Cc1cn(-c2cc(NC(=O)c3ccc(C)c(Nc4nccc(-c5cccnc5)n4)c3)cc(C(F)(F)F)c2)cn1 [Nilotinib], the “EC50, CellTox Green” value [21] was over 10000 nM.

Cc1cn(-c2cc(NC(=O)c3ccc(C)c(Nc4nccc(-c5cccnc5)n4)c3)cc(C(F)(F)F)c2)cn1 [Nilotinib] (10000 nM) showed a normalised response [1] of 94.7%, a normalised response [2] of 103% and a normalised response [3] of 99.4%. It also gave a normalised response [4] of 96.8%, a normalised response [5] of 61.2% and a normalised response [6] of 99.4%. The normalised response [7] was 93%, the normalised response [8] was 106% and the normalised response [9] was 98%. The normalised response [10] was 97.2%, the normalised response [11] was 97.1% and the normalised response [12] was 102%. For the same compound, the normalised response [13] was 119%, the normalised response [14] was 105% and the normalised response [15] was 86.3%. For the same compound, the normalised response [16] was 104%, the normalised response [17] was 101% and the normalised response [18] was 102%. For the same compound, the normalised response [19] was 92.9%.

CC(C)n1cnc2c(NCCc3ccc(O)cc3)nc(-c3csc4ccccc34)nc21 [StemRegenin 1] was tested, and the “EC50, CellTox Green” value [20] was over 10000 nM.

For O=C(CCCCCCC(=O)Nc1ccccc1)NO [Vorinostat] (10000 nM), the normalised response [1] was 17.3%, the normalised response [2] was 46.1% and the normalised response [3] was 14.1%. For the same compound, the normalised response [4] was 43.6%, the normalised response [5] was 47.7% and the normalised response [6] was 43.3%. The normalised response [7] was 24.4%, the normalised response [8] was 52.2% and the normalised response [9] was 29.6%. It also gave a normalised response [10] of 31.5%, a normalised response [11] of 34% and a normalised response [12] of 27.8%. The normalised response [13] was 8.35%, the normalised response [14] was 64.3% and the normalised response [15] was 22.8%. The normalised response [16] was 44.2%, the normalised response [17] was 22% and the normalised response [18] was 3.2%. It also gave a normalised response [19] of 15%.
